Laboratory results from patent US12285407B2, “Bis-indolylmethane derivatives and uses thereof” (The University of The West Indies, priority 2018, dated 2025).

Legend:
clinical strains of MRSA = assay: Kirby Bauer disc diffusion susceptibility profile; format: cell-based, Staphylococcus aureus; conditions: for Zone of clearance: 35° C., 24 hours, average n=3; for Interpretive standard (resistant/susceptible): zones vs EUCAST breakpoints (Table 30)
Bacillus cereus = assay: Adjuvant broth microdilution (antibiotic MIC with SP-BIM at 50 μg/mL); format: cell-based; conditions: antibiotic alone, Table 9
Escherichia coli O157:H7 = format: cell-based; conditions: antibiotic alone, no SP-BIM
Pseudomonas aeruginosa = assay: Adjuvant broth microdilution (antibiotic MIC with SP-BIM at 50 μg/mL); format: cell-based; conditions: antibiotic alone
Klebsiella pneumoniae = assay: as above; format: cell-based; conditions: antibiotic alone; for MIC of antibiotic, No Compound: Klebsiella pneumonia, no SP-BIM; for MIC: Klebsiella pneumoniae, Table 7, read-out: MIC of antibiotic, No compound
[1] = test system: clinical strains of Enterococcus faecium; assay: Kirby Bauer disc diffusion susceptibility profile; format: cell-based; conditions: for Zone of clearance: 35° C., 24 hours, average n=3; for Interpretive standard (resistant/susceptible): zones vs EUCAST breakpoints (Table 31)

## C[C@H]1c2cccc(O)c2C(=O)C2=C(O)[C@]3(O)C(=O)C(C(N)=O)=C(O)[C@@H](N(C)C)[C@@H]3[C@@H](O)[C@@H]21 [Doxycycline, doxycycline]
Clinical strains of MRSA; MRSA strain 1594
  Zone of clearance: 12.5 mm
  Interpretive standard (resistant/susceptible): R
Clinical strains of MRSA; MRSA strain 1621
  Zone of clearance: 21.0 mm
  Interpretive standard (resistant/susceptible): S
Clinical strains of MRSA; MRSA strain 5455
  Zone of clearance: 22.5 mm
  Interpretive standard (resistant/susceptible): S
Clinical strains of MRSA; MRSA strain 5872
  Zone of clearance: 15.0 mm
  Interpretive standard (resistant/susceptible): R
Clinical strains of MRSA; MRSA strain 7153
  Zone of clearance: 18.0 mm
  Interpretive standard (resistant/susceptible): R
Clinical strains of MRSA; MRSA strain 7172
  Zone of clearance: 19.0 mm
  Interpretive standard (resistant/susceptible): R
Clinical strains of MRSA; MRSA strain 7698
  Zone of clearance: 10.5 mm
  Interpretive standard (resistant/susceptible): R
Clinical strains of MRSA; MRSA strain 10132
  Zone of clearance: 12.0 mm
  Interpretive standard (resistant/susceptible): R
Bacillus cereus
  MIC of antibiotic, No Compound: <0.5 µg/mL
Escherichia coli O157:H7
  MIC of antibiotic, No Compound: 2 µg/mL
Pseudomonas aeruginosa
  MIC of antibiotic, No Compound: 32 µg/mL
Klebsiella pneumoniae
  MIC of antibiotic, No Compound: 8 µg/mL
  MIC: 32 µg/mL

## CC[C@H]1OC(=O)[C@H](C)[C@@H](O[C@H]2C[C@@](C)(OC)[C@@H](O)[C@H](C)O2)[C@H](C)[C@@H](O[C@@H]2O[C@H](C)C[C@H](N(C)C)[C@H]2O)[C@](C)(O)C[C@@H](C)C(=O)[C@H](C)[C@@H](O)[C@]1(C)O [Erythromycin, erythromycin]
Clinical strains of MRSA; MRSA strain 1594
  Zone of clearance: 19.0 mm
  Interpretive standard (resistant/susceptible): S
Clinical strains of MRSA; MRSA strain 1621
  Zone of clearance: 21.5 mm
  Interpretive standard (resistant/susceptible): S
Clinical strains of MRSA; MRSA strain 5455
  Zone of clearance: 20.5 mm
  Interpretive standard (resistant/susceptible): S
Clinical strains of MRSA; MRSA strain 5872
  Zone of clearance: 0.0 mm
  Interpretive standard (resistant/susceptible): R
Clinical strains of MRSA; MRSA strain 7153
  Zone of clearance: 18.5 mm
  Interpretive standard (resistant/susceptible): S
Clinical strains of MRSA; MRSA strain 7172
  Zone of clearance: 17.5 mm
  Interpretive standard (resistant/susceptible): S
Clinical strains of MRSA; MRSA strain 7698
  Zone of clearance: 17.5 mm
  Interpretive standard (resistant/susceptible): S
Clinical strains of MRSA; MRSA strain 10132
  Zone of clearance: 9.0 mm
  Interpretive standard (resistant/susceptible): R
Bacillus cereus
  MIC of antibiotic, No Compound: 4 µg/mL
Escherichia coli O157:H7
  MIC of antibiotic, No Compound: 250 µg/mL
Pseudomonas aeruginosa
  MIC of antibiotic, No Compound: >250 µg/mL
Klebsiella pneumoniae
  MIC of antibiotic, No Compound: >250 µg/mL
  MIC: 32 µg/mL

## [H]/N=C(/N)N[C@H]1[C@H](O)[C@@H](O)[C@H](O[C@@H]2O[C@@H](C)[C@](O)(C=O)[C@H]2O[C@@H]2O[C@@H](CO)[C@H](O)[C@@H](O)[C@@H]2NC)[C@@H](N/C(N)=N\[H])[C@@H]1O [Streptomycin, streptomycin]
Clinical strains of MRSA; MRSA strain 1594
  Zone of clearance: 11.5 mm
  Interpretive standard (resistant/susceptible): R
Clinical strains of MRSA; MRSA strain 1621
  Zone of clearance: 17.0 mm
  Interpretive standard (resistant/susceptible): S
Clinical strains of MRSA; MRSA strain 5455
  Zone of clearance: 17.0 mm
  Interpretive standard (resistant/susceptible): S
Clinical strains of MRSA; MRSA strain 5872
  Zone of clearance: 8.0 mm
  Interpretive standard (resistant/susceptible): R
Clinical strains of MRSA; MRSA strain 7153
  Zone of clearance: 16.0 mm
  Interpretive standard (resistant/susceptible): I
Clinical strains of MRSA; MRSA strain 7172
  Zone of clearance: 18.5 mm
  Interpretive standard (resistant/susceptible): S
Clinical strains of MRSA; MRSA strain 7698
  Zone of clearance: 12.0 mm
  Interpretive standard (resistant/susceptible): R
Clinical strains of MRSA; MRSA strain 10132
  Zone of clearance: 8.5 mm
  Interpretive standard (resistant/susceptible): R
[1]; E. faecium strain 15134
  Zone of clearance: 20 mm
  Interpretive standard (resistant/susceptible): S
[1]; E. faecium strain 21024
  Zone of clearance: 17 mm
  Interpretive standard (resistant/susceptible): S
[1]; E. faecium strain 21955
  Zone of clearance: 13 mm
  Interpretive standard (resistant/susceptible): R
[1]; E. faecium strain 22003
  Zone of clearance: 18 mm
  Interpretive standard (resistant/susceptible): S
[1]; E. faecium strain 22870
  Zone of clearance: 29 mm
  Interpretive standard (resistant/susceptible): S
[1]; E. faecium strain 23227
  Zone of clearance: 25 mm
  Interpretive standard (resistant/susceptible): S
[1]; E. faecium strain 23230
  Zone of clearance: 14 mm
  Interpretive standard (resistant/susceptible): S
[1]; E. faecium strain 23668
  Zone of clearance: 13 mm
  Interpretive standard (resistant/susceptible): R
[1]; E. faecium strain 24169
  Zone of clearance: 19 mm
  Interpretive standard (resistant/susceptible): S
[1]; E. faecium strain RC63
  Zone of clearance: 5 mm
  Interpretive standard (resistant/susceptible): R
Klebsiella pneumoniae
  MIC: 32 µg/mL
